# Test results from ChEMBL document CHEMBL1201862, “PubChem BioAssay data set” (2004).
# The source made the active and inactive calls.
# Legend:
# [1] = molecular target: Peroxisome proliferator-activated receptor gamma/Nuclear receptor coactivator 1 (Homo sapiens, UniProt P37231); test: TR-FRET dose response biochemical High Throughput Screening assay for agonists of the steroid receptor coactivator 1 (SRC-1) recruitment by the peroxisome proliferator-activated receptor gamma (PPAR gamma): non-selective agonists. [Related pubchem assays (depositor defined):AID1300, AID1808, AID504735, AID631]; assay type: protein assay
# [2] = molecular target: Peroxisome proliferator-activated receptor gamma/Nuclear receptor coactivator 3 (Homo sapiens, UniProt P37231); test: TR-FRET dose response biochemical High Throughput Screening assay for agonists of the steroid receptor coactivator 3 (SRC-3) recruitment by the peroxisome proliferator-activated receptor gamma (PPAR gamma): non-selective agonists. [Related pubchem assays: 1301 (Confirmation screen.), 1048 (Primary screen.)]; assay type: functional
# [3] = molecular target: Peroxisome proliferator-activated receptor gamma/Nuclear receptor coactivator 2 (Homo sapiens, UniProt P37231); test: TR-FRET dose response biochemical High Throughput Screening assay for agonists of the steroid receptor coactivator 2 (SRC-2) recruitment by the peroxisome proliferator-activated receptor gamma (PPAR gamma): non-selective agonists. [Related pubchem assays: 1297, 1032 ]; assay type: functional
# [4] = molecular target: T1, Nucleotide-binding oligomerization domain-containing protein 1 (Homo sapiens, UniProt Q9Y239); test: SAR analysis of NF-kappaB dependent luciferase using DAP as an inducer - Set 2. [Related pubchem assays (depositor defined):AID1566, AID1575, AID1578, AID1579, AID1849, AID1852, AID2264]; assay type: functional
# T1 sequence (Q9Y239 whole entry): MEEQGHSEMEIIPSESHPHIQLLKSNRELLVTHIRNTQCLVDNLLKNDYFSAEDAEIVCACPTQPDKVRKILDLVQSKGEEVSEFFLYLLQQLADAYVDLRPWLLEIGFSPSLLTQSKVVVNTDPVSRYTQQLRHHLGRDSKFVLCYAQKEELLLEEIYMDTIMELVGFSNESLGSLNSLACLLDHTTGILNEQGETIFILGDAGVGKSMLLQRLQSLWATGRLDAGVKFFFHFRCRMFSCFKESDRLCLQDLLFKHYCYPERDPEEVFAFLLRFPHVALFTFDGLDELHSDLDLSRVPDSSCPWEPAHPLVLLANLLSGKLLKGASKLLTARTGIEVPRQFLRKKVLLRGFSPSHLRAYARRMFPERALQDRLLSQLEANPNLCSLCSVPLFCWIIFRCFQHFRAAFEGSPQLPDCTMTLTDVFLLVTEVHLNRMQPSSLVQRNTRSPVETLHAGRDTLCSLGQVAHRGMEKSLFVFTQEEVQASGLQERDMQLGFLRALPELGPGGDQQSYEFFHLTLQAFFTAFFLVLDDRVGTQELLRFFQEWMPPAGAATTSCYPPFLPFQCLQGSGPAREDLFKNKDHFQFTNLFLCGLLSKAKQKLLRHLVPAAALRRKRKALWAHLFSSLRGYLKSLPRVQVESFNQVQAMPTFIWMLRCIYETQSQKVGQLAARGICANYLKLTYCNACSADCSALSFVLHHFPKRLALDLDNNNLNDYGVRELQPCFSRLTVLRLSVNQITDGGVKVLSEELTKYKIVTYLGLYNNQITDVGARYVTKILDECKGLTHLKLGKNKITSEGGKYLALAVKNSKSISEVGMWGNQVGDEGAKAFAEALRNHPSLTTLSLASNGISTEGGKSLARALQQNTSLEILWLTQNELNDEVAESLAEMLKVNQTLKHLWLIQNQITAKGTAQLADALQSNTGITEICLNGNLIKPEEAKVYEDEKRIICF
# Interleukin-8 [5] = molecular target: T2, Interleukin-8 (Homo sapiens, UniProt P10145); test: SAR analysis of Tumor necrosis factor alpha (TNF-alpha) induced IL-8 secretion in MCF-7/NOD1 cells - Set 2. [Related pubchem assays (depositor defined):AID1575, AID2250, AID2260]; assay type: functional, cell-based
# T2 sequence (P10145 whole entry): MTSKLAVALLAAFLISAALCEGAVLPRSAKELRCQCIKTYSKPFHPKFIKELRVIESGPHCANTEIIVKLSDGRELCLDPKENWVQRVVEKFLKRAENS
# Interleukin-8 [6] = molecular target: T2, Interleukin-8; test: SAR analysis of GM-Tri-DAP induced IL-8 secretion in MCF-7/NOD1 cells - Set 2. [Related pubchem assays (depositor defined):AID1575, AID1578, AID2333]; assay type: functional, cell-based
# [7] = molecular target: T3, Nucleotide-binding oligomerization domain-containing protein 2 (Homo sapiens, UniProt Q9HC29); test: inhibition of NOD2 signaling – set 2, SAR follow-up (AID 2475); assay type: functional
# HEK293 [8] = test: SAR analysis of compounds that are cytotoxic to HEK293 - Set 2. [Related pubchem assays (depositor defined):AID1575, AID1578, AID1849, AID2001, AID2333, AID2334, AID2335, AID2337, AID2800]; assay type: functional, cell-based; conditions: Homo sapiens
# [9] = molecular target: T1, Nucleotide-binding oligomerization domain-containing protein 1; test: SAR analysis of compounds that inhibit NOD1 - Set 2. [Related pubchem assays (depositor defined):AID1566, AID1575, AID1578, AID1849, AID1852, AID2333, AID2335, AID2798]; assay type: functional
# [10] = molecular target: T1, Nucleotide-binding oligomerization domain-containing protein 1; test: SAR analysis of compounds that inhibit NOD1 - Set 3. [Related pubchem assays (depositor defined):AID1566, AID1575, AID1578, AID1849, AID1852, AID2333, AID2335, AID2466]; assay type: functional
# Tumor necrosis factor = Tumor necrosis factor (Homo sapiens, UniProt P01375); test: analog potency on TNFa NF-kB signaling – cell-based, set 3, SAR follow-up (AID 2801); assay type: functional
# HEK293 [11] = test: SAR analysis of compounds that are cytotoxic to HEK293 - Set 3. [Related pubchem assays (depositor defined):AID1575, AID1578, AID1848, AID1849, AID2001, AID2333, AID2334, AID2335, AID2337, AID2469]; assay type: functional, cell-based; conditions: Homo sapiens
# [12] = molecular target: T3, Nucleotide-binding oligomerization domain-containing protein 2; test: inhibition of MDP-driven NOD2 NF-kB reporter – cell-based, set 3, SAR follow-up (AID 2799); assay type: functional
# [13] = Counterscreen for IDE inhibitors: Luminescence-based cell-based high throughput dose response assay to identify compounds that are cytotoxic to HEK cells. [Related pubchem assays: 434962 (Primary screen (IDE inhibitors in singlicate)), 449730 (Counterscreen (Cytotoxicity in triplicate)), 435028 (Confirmation (IDE inhibitors in triplicate)) …; assay type: functional; conditions: HEK293
# Insulin-degrading enzyme = molecular target: T4, Insulin-degrading enzyme (Homo sapiens, UniProt P14735); test: Dose Response: Fluorescence polarization-based cell-based high throughput dose response assay for inhibitors of insulin-degrading enzyme (IDE). [Related pubchem assays: 434962 (Primary screen (IDE inhibitors in singlicate)), 449730 (Counterscreen (Cytotoxicity in triplicate)), 435028 (Confirmation (IDE inhibitors in triplicate)), 434984 (Summary …; assay type: functional
# T4 sequence (P14735 whole entry): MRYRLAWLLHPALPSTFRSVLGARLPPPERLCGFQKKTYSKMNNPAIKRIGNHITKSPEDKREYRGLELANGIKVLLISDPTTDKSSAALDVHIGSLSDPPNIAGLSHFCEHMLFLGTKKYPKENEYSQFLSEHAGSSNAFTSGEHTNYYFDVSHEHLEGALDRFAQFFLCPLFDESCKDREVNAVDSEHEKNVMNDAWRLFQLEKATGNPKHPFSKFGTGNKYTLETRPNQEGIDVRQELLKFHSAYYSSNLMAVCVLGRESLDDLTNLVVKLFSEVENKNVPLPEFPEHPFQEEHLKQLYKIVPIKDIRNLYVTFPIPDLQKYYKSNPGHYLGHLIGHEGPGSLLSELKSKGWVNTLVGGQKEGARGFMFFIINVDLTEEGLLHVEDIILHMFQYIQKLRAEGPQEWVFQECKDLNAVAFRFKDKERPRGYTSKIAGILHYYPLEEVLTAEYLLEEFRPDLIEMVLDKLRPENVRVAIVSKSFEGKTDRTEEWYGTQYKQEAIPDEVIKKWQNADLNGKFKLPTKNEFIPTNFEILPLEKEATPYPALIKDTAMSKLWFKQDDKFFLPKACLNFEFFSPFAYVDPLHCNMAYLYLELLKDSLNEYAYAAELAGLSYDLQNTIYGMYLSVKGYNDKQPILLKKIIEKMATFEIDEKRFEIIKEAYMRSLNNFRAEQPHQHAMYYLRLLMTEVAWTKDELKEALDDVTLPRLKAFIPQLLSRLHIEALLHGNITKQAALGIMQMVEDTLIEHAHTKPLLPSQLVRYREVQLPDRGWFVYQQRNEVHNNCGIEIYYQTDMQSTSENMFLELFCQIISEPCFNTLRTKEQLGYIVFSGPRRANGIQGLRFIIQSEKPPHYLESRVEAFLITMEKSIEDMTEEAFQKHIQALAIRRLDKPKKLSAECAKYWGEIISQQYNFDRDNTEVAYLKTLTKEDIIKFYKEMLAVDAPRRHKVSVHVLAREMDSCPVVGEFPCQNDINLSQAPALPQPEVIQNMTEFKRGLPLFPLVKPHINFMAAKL
# [14] = molecular target: Intestinal-type alkaline phosphatase (Homo sapiens, UniProt P09923); test: activation of human intestinal alkaline phosphatase – biochemical, dose response (AID 488873); assay type: functional
# [15] = molecular target: Intestinal-type alkaline phosphatase (Mus musculus, UniProt P24822); test: mouse intestinal alkaline phosphatase activators, dose response, biochemical, luminescence, uHTS hits (AID 488783); assay type: functional
# [16] = molecular target: T5, Alkaline phosphatase, tissue-nonspecific isozyme (Homo sapiens, UniProt P05186); test: activation of tissue-nonspecific alkaline phosphatase – biochemical, TNAP isozyme, mouse IAP uHTS hits, selectivity assay for mouse IAP activator project, dose response (AID 488880); assay type: functional
# T5 sequence (P05186 whole entry): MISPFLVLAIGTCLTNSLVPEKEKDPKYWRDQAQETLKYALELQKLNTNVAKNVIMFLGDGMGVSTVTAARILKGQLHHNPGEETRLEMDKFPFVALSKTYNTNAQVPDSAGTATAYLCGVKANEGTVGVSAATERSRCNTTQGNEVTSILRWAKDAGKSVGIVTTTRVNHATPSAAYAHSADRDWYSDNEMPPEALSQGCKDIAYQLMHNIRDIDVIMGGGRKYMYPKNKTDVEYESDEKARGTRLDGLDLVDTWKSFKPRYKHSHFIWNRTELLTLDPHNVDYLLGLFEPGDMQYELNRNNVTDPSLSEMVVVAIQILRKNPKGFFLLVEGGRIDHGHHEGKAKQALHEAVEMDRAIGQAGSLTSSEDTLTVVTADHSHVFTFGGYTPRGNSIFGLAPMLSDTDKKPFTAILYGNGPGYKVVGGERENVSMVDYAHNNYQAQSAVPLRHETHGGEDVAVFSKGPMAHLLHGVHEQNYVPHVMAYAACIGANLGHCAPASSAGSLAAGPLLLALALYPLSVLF
# [17] = molecular target: Dual specificity tyrosine-phosphorylation-regulated kinase 1A (Rattus norvegicus, UniProt Q63470); assay type: biochemical, Homo sapiens
# [18] = decrease of insulin promoter-GFP reporter – imaging, high-content screening, mouse beta cells (AID 1628); assay type: functional; conditions: MIN6
# [19] = MIN6 cell viability loss – mouse insulinoma, cytotoxicity control, dose response (AID 2122); assay type: functional;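 further: confirmatory high-throughput counterscreen run to flag cytotoxic compounds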
# SUMO E1/E2 = SUMO E1/E2 (Homo sapiens, UniProt P63279+Q9UBE0+Q9UBT2); test: SAR analysis of SUMOylation using HTRF in an in-Vitro dose response assay. [Related pubchem assays (depositor defined):AID2006, AID2011, AID2018, AID2069, AID2658]; assay type: functional
# SUMO E1/E2, sequence (Q9UBE0 whole entry): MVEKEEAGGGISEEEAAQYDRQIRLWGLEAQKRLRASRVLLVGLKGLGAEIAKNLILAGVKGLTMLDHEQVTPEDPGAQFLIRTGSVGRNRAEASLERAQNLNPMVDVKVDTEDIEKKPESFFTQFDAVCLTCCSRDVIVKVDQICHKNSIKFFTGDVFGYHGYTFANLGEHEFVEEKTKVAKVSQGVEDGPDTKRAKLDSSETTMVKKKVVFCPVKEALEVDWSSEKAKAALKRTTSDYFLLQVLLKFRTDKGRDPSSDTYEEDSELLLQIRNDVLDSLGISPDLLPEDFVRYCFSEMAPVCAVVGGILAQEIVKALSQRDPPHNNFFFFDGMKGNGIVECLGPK
# SUMO E1/E2, sequence (Q9UBT2 whole entry): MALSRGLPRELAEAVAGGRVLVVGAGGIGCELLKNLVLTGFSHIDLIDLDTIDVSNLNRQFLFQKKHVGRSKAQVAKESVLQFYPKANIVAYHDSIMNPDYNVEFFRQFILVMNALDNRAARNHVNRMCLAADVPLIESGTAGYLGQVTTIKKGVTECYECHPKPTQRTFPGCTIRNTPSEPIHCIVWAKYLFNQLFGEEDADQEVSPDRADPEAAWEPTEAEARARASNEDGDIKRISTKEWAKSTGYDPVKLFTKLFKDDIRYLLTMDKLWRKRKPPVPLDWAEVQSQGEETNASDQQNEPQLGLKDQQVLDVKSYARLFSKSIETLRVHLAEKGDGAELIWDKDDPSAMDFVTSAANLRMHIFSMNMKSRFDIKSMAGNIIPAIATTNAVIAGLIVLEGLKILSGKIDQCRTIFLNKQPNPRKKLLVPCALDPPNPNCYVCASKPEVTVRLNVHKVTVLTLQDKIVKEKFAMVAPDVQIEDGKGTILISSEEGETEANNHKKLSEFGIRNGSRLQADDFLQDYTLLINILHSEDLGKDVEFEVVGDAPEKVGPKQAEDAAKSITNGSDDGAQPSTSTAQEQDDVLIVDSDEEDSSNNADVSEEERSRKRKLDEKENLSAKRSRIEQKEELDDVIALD
# SUMO E1/E2, sequence (P63279 whole entry): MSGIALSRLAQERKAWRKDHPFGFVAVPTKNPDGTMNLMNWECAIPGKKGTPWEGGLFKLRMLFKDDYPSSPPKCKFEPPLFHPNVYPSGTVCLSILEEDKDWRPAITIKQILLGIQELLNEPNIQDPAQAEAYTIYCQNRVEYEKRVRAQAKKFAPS
# T3 sequence (Q9HC29 whole entry, the tested form may be a part): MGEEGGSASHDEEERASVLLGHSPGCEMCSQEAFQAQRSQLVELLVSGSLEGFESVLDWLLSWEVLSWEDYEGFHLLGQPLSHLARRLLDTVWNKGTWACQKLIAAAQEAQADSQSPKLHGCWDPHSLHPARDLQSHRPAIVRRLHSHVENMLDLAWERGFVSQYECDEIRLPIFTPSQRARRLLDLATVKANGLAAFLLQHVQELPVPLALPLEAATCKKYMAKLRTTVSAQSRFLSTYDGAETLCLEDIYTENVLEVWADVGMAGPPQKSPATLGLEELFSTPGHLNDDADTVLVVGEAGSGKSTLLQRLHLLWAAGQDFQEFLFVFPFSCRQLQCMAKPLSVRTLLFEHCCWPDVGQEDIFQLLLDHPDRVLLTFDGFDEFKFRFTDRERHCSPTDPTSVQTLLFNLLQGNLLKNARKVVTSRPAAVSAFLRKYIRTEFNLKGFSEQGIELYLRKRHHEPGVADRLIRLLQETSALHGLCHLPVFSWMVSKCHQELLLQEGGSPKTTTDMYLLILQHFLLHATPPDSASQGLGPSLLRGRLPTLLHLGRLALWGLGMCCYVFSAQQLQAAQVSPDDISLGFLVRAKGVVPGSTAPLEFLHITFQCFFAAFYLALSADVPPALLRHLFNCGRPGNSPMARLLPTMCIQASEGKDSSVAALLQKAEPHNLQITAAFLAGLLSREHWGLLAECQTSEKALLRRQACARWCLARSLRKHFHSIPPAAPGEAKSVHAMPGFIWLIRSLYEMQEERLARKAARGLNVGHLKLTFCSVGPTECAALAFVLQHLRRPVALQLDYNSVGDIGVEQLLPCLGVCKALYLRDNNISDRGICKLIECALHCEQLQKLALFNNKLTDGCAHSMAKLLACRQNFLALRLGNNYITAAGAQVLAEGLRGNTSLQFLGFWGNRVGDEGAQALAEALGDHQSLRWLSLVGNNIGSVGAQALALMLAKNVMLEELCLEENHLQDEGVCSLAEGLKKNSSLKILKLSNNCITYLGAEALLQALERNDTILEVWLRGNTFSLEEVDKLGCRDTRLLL
# Tumor necrosis factor, sequence (P01375 whole entry): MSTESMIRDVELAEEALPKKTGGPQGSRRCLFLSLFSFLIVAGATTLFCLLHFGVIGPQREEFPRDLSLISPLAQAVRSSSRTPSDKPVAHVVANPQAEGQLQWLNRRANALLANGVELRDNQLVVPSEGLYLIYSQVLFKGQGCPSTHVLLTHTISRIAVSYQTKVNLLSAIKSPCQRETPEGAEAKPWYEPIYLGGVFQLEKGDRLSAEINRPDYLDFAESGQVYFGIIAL
# Peroxisome proliferator-activated receptor gamma/Nuclear receptor coactivator 3, sequence (P37231 whole entry): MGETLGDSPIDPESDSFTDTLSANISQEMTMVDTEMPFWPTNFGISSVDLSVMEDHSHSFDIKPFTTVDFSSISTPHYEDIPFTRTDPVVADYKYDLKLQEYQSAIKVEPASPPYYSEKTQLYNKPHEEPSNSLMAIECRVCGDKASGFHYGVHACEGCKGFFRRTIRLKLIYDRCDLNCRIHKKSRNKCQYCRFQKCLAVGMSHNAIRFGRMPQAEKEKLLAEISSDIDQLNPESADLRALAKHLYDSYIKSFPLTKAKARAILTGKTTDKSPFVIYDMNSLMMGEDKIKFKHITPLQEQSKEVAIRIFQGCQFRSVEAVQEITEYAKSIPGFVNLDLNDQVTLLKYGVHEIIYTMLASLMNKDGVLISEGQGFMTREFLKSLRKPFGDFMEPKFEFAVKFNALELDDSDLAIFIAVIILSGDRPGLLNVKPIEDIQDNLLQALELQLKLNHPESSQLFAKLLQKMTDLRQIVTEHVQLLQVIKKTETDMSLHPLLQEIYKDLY
# Peroxisome proliferator-activated receptor gamma/Nuclear receptor coactivator 3, sequence (Q9Y6Q9 whole entry, further chain): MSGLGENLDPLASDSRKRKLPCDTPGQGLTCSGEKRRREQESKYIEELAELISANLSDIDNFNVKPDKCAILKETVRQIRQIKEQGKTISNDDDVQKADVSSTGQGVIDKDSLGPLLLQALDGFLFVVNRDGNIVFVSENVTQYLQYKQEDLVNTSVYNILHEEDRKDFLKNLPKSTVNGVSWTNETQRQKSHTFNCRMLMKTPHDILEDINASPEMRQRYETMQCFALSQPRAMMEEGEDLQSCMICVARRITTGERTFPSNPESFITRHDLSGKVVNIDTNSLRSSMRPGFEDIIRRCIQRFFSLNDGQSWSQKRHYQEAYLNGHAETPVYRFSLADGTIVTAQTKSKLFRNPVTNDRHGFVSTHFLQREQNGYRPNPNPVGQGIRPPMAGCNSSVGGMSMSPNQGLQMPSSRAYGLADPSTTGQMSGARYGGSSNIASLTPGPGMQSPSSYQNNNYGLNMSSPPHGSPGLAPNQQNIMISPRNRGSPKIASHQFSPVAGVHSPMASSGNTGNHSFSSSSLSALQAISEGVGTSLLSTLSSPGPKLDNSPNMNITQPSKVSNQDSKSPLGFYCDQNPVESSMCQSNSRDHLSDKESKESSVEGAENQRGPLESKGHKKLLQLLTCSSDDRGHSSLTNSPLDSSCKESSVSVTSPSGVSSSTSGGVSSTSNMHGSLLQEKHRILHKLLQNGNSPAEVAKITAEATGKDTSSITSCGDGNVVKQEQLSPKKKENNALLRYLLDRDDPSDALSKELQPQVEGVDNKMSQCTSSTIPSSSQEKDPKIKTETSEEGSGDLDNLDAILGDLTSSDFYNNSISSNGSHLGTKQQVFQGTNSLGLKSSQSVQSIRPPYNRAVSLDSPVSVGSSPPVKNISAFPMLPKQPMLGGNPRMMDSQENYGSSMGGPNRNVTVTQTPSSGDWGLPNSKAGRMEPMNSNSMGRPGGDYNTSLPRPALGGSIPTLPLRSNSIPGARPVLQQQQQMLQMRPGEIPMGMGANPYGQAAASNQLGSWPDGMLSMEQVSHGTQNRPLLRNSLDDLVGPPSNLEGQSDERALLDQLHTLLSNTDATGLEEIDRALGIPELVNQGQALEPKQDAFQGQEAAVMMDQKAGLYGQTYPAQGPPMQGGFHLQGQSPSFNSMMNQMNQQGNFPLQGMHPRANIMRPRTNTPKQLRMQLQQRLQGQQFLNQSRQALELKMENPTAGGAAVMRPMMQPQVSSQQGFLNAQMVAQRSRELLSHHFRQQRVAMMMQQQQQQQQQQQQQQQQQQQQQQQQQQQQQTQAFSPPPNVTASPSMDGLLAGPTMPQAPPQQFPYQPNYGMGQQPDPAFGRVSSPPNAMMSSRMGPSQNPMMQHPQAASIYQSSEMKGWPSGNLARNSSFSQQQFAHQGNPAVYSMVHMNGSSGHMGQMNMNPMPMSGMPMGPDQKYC
# Intestinal-type alkaline phosphatase (Mus musculus, UniProt P24822), sequence (P24822 whole entry): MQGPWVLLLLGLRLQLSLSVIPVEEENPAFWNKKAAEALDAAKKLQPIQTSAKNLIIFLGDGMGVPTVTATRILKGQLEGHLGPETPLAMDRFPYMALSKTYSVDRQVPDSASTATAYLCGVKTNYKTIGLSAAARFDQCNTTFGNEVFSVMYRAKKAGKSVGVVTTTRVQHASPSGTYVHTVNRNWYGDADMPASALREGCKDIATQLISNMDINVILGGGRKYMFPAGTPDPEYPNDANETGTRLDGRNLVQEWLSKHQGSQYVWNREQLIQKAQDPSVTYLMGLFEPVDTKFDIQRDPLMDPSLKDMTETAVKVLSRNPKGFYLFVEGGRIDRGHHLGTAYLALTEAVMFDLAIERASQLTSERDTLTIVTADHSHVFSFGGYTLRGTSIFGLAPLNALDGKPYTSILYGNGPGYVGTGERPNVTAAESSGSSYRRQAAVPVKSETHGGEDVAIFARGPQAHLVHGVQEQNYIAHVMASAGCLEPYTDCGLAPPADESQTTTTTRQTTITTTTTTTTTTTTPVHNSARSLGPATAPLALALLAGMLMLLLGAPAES
smiles,measurement,setting,value
O=C(CSc1ccccc1)Nc1ccc(C(=O)Nc2ccc(O)cc2)cc1,EC50,[1],9.68 µM (active)
same,EC50,[2],58.3 µM (not active)
same,EC50,[3],8.24 µM (active)
Fc1cccc(CSc2ncnc3c2oc2ccccc23)c1,EC50,[1],24.2 µM (inactive)
same,EC50,[2],85.8 µM (not active)
same,EC50,[3],14.3 µM (not active)
CCCn1c(SCC(=O)Nc2nc3c(s2)CCCC3)nc2c1c(=O)n(C)c(=O)n2C,IC50,[4],> 25 µM (inactive)
same,IC50,Interleukin-8 [5],> 25 µM (inactive)
same,IC50,Interleukin-8 [6],> 25 µM (inactive)
same,IC50,[7],1.98 µM (active)
same,IC50,HEK293 [8],> 20 µM (inactive)
same,IC50,[9],1.63 µM (active)
same,IC50,[10],1.36 µM (active)
same,IC50,Tumor necrosis factor,2.12 µM (active)
same,IC50,HEK293 [11],> 20 µM (inactive)
same,IC50,[12],1.2 µM (active)
CSC1=NSC2=NC(=O)/C(=C/c3coc4ccc(O)cc4c3=O)C(=N)N12,IC50,[13],> 55.7 µM (not active)
same,IC50,Insulin-degrading enzyme,> 6.21 µM (active)
same,EC50,[14],24.9 µM (active)
same,EC50,[15],20.8 µM (active)
same,EC50,[16],30.2 µM (active)
same,AC50,[17],7.62 µM (active)
CC(C)Oc1cccc(C(=O)C2CCCN(Cc3cccn3-c3ccccn3)C2)c1 (stereo unspecified),IC50,[18],3.3 µM (active)
same,IC50,[19],7.53 µM (active)
COc1ccccc1CNC(=O)COC(=O)c1cc(-c2cccs2)nc2ccccc12,IC50,SUMO E1/E2,30.1 µM (active)
Cc1ccsc1/C=N/c1ccc(C(N)=O)cc1,IC50,SUMO E1/E2,> 100 µM (inactive)
C/C=C/Cn1c(SCc2ccc(Cl)cc2)nc2c1c(=O)[nH]c(=O)n2C,IC50,[4],> 25 µM (inactive)
same,IC50,Interleukin-8 [5],> 25 µM (inactive)
same,IC50,Interleukin-8 [6],> 25 µM (inactive)
same,IC50,[7],13.7 µM (active)
same,IC50,HEK293 [8],> 20 µM (inactive)
same,IC50,[9],14.7 µM (active)
same,IC50,[10],> 20 µM (inactive)
same,IC50,Tumor necrosis factor,> 20 µM (inactive)
same,IC50,HEK293 [11],> 20 µM (inactive)
same,IC50,[12],> 20 µM (inactive)
